{"source": "patent US11053300B2", "about": "“Membrane span-kinase fusion protein and the uses thereof” (VIB VZW, priority 2012, dated 2021)", "key": {"[1]": {"target": "T1, human somatostatin receptor 2 (SSTR2) (Homo sapiens, UniProt P30874)", "T1 construct": "expressed in transfected cells; host or cells: HEK293-T", "T1 sequence (P30874 with tags, fused parts or gaps)": "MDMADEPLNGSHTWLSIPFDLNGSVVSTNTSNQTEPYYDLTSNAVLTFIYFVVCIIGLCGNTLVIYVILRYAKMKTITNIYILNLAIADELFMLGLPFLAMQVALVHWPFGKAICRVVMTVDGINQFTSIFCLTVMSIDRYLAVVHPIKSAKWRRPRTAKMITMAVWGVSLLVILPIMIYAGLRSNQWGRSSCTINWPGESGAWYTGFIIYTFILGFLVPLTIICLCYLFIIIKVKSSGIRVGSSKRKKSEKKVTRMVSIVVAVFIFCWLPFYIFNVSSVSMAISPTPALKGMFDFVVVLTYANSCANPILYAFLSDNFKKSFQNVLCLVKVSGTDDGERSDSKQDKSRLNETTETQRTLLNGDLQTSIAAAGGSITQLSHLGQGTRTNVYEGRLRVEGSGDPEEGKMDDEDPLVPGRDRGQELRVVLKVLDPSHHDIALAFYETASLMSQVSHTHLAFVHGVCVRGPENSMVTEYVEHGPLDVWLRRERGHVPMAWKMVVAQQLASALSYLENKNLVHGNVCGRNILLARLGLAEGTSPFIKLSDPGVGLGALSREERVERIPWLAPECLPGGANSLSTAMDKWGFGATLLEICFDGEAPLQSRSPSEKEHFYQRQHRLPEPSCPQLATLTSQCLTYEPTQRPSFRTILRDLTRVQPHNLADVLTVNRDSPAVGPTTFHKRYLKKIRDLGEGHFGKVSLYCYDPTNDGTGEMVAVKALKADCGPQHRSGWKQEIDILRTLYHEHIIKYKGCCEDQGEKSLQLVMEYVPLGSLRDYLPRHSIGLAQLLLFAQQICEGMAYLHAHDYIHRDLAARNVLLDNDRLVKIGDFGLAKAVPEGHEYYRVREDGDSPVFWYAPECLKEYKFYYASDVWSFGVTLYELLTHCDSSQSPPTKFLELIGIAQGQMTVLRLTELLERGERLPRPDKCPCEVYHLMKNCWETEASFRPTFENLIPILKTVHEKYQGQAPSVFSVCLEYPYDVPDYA", "assay": "Ligand-dependent SSTR2-ARRB2 interaction, Tyk2(C)/gp130 fusion STAT3-luciferase reporter assay", "assay_type": "cell-based", "details": "for effect of antagonist on SSTR2-ARRB2 interaction signal: 1 μM somatostatin, 0.05 or 0.5 μM CYN154806, 0.1 or 1 μM losartan or telmisartan, FIG. 4 transfection b; for effect of antagonist on SSTR2-ARRB2 interaction signal, dose-response: 10 μM somatostatin, antagonist 10^-13 M up to 10^-6 M, FIG. 5A", "text": "(§1) The membrane span protein (X) is fused to the C-terminal region of Tyk2 comprising the kinase domain, whereas the polypeptide interacting with the membrane span protein (Y) is fused to a fragment of gp130 which contains phosphorylation sites. When membrane span protein X and the polypeptide Y interact, the Tyk2 kinase domain phosphorylates the phosphorylation sites of gp130. STAT3 transcription factors are recruited to these phosphorylated sites and are in turn phosphorylated by the Tyk2 kinase domain, which results in their activation. Dimers of activated STAT3 transcription factors are able to bind the specific rPAPI promoter, which drives the expression of a firefly luciferase reporter gene. The activity of this reporter gene is measured as light production in a luciferase detection assay using a luminometer.\n(§2) The fold induction for each sample was calculated as the ratio of the measured luciferase activity relative to the luciferase activity for the untreated sample of the same transfection.\nThe assay was further optimized by transferring the Tyk2(C) fusion construct into another vector system (pSVSport) and testing the resulting constructs in a similar experiment as described above. The following combinations of plasmids were transfected (500 ng of the Tyk2(C) fusion construct, 250 ng of the gp130 fusion construct and 50 ng of the luciferase reporter construct) according to the methods described above: […]"}, "[2]": {"target": "T2, human angiotensin receptor 1 (AGTR1) (Homo sapiens, UniProt P30556)", "T2 construct": "expressed in transfected cells; host or cells: HEK293-T", "T2 sequence (P30556 with tags, fused parts or gaps)": "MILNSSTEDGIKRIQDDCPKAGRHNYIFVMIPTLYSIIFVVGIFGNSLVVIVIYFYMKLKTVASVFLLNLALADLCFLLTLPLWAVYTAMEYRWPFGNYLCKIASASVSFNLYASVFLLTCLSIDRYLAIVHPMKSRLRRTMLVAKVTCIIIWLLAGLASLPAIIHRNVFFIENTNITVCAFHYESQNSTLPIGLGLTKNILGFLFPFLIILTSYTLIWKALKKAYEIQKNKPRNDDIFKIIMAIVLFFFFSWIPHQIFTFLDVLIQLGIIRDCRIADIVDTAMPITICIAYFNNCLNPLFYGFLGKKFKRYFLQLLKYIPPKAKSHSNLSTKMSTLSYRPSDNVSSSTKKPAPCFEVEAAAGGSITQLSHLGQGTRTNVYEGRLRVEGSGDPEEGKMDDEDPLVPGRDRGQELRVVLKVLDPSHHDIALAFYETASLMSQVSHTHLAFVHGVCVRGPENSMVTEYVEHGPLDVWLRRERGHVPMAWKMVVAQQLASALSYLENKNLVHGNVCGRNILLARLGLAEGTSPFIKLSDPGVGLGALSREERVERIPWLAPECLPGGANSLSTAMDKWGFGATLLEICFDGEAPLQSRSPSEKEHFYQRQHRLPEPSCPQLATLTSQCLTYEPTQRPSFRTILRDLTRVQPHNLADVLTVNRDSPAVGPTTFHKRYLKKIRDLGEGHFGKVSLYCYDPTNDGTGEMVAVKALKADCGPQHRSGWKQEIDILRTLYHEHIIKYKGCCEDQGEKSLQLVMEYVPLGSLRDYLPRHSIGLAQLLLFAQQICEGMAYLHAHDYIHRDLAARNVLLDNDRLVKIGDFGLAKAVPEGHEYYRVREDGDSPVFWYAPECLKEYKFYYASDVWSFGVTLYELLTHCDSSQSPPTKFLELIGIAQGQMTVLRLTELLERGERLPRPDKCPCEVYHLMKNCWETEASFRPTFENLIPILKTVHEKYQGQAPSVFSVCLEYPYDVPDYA", "assay": "Ligand-dependent AGTR1-ARRB2 interaction, Tyk2(C)/gp130 fusion STAT3-luciferase reporter assay", "assay_type": "cell-based", "details": "10 μM angiotensin II; for effect of antagonist on AGTR1-ARRB2 interaction signal: 0.05 or 0.5 μM CYN154806, 0.1 or 1 μM losartan or telmisartan, FIG. 4 transfection d; for effect of antagonist on AGTR1-ARRB2 interaction signal, dose-response: antagonist 10^-13 M up to 10^-6 M", "text": "as §1\nTransfections were carried out using a standard calcium phosphate method. HEK293-T cells were seeded in black tissue-culture treated 96-well plates at 10.000 cells/well in 100 μl culture medium (DMEM supplemented with 10% FCS). Twenty-four hours later, plasmid DNA mixes were prepared that contained plasmids encoding fusion proteins with the first and second interacting proteins and reporter plasmids. The DNA was supplemented with 5 μl 2.5M CaCl2) and double distilled water to a final volume of 50 μl. This mixture was added drop wise to 50 μl 2×HeBS buffer (280 mM NaCl, 1.5 mM Na2HPO4, 50 mM Hepes; pH 7.05) while vigorously vortexing. After incubation at room temperature for 15 min. to allow DNA precipitates to form, the solution was added to the cells at 10 μl/well. Cells were incubated at 37° C., 8% CO2. Twenty-four hours after transfection, cells were treated with the indicated amounts of ligand, either alone or combined with the indicated amount of antagonist. In the case of Irestatin 9389, cells were pre-treated with the antagonist before adding vehicle (DMSO) or tunicamycin. Another twenty-four hours later, luciferase activity was measured using the Luciferase Assay System kit (Promega) on a TopCount luminometer (Perkin-Elmer). Each transfection was done in triplicate and the average of the luciferase activity readings was used in the calculations.\nas §2\nCells were transfected with the following combinations of plasmids (250 ng of the Tyk2(C) fusion construct, 250 ng of the gp130 fusion construct and 50 ng of the luciferase reporter construct) according to the methods described above:\nCells were transfected with 125 ng of the pMet7-SSTR2-Tyk2(C)−HA or pMet7-AGTR1-Tyk2(C)−HA fusion construct, 250 ng of the pMG2-ARRB2 gp130 fusion construct and 50 ng of the pXP2d2-rPAPI-luciferase reporter plasmid, according to the methods described above."}, "[3]": {"target": "T3, ERN1 (Homo sapiens, UniProt O75460)", "details": "reported, Feldman and Koong, 2007; cited from earlier work"}, "[4]": {"target": "T3, ERN1", "assay": "ERN1 dimerization, ERN1-Tyk2(C)/ERN1-gp130 luciferase reporter assay", "assay_type": "cell-based", "set-up": "Flag (N); expressed in transfected cells; host or cells: HEK293-T", "method": "Transfections were carried out using a standard calcium phosphate method. HEK293-T cells were seeded in black tissue-culture treated 96-well plates at 10.000 cells/well in 100 μl culture medium (DMEM supplemented with 10% FCS). Twenty-four hours later, plasmid DNA mixes were prepared that contained plasmids encoding fusion proteins with the first and second interacting proteins and reporter plasmids. The DNA was supplemented with 5 μl 2.5M CaCl2) and double distilled water to a final volume of 50 μl. This mixture was added drop wise to 50 μl 2×HeBS buffer (280 mM NaCl, 1.5 mM Na2HPO4, 50 mM Hepes; pH 7.05) while vigorously vortexing. After incubation at room temperature for 15 min. to allow DNA precipitates to form, the solution was added to the cells at 10 μl/well. Cells were incubated at 37° C., 8% CO2. Twenty-four hours after transfection, cells were treated with the indicated amounts of ligand, either alone or combined with the indicated amount of antagonist. […] Another twenty-four hours later, luciferase activity was measured using the Luciferase Assay System kit (Promega) on a TopCount luminometer (Perkin-Elmer). Each transfection was done in triplicate and the average of the luciferase activity readings was used in the calculations.\nTunicamycin (Sigma T7765; 2 mg/ml stock in DMSO) was diluted in culture medium and added to the cells 24 h prior to luciferase signal read-out. […]"}}, "data": [{"compound": "CCCCc1nc(Cl)c(CO)n1Cc1ccc(-c2ccccc2-c2nn[nH]n2)cc1", "note": "[losartan]", "values": [{"measurement": "effect of antagonist on SSTR2-ARRB2 interaction signal", "setting": "[1]", "value": "no effect"}, {"measurement": "effect of antagonist on SSTR2-ARRB2 interaction signal, dose-response", "setting": "[1]", "value": "no effect"}, {"measurement": "effect of antagonist on AGTR1-ARRB2 interaction signal", "setting": "[2]", "value": "selectively inhibited"}, {"measurement": "effect of antagonist on AGTR1-ARRB2 interaction signal, dose-response", "setting": "[2]; FIG. 5B", "value": "selectively and completely inhibited"}]}, {"compound": "CCCc1nc2c(C)cc(-c3nc4ccccc4n3C)cc2n1Cc1ccc(-c2ccccc2C(=O)O)cc1", "note": "[telmisartan]", "values": [{"measurement": "effect of antagonist on SSTR2-ARRB2 interaction signal", "setting": "[1]", "value": "no effect"}, {"measurement": "effect of antagonist on SSTR2-ARRB2 interaction signal, dose-response", "setting": "[1]", "value": "no effect"}, {"measurement": "effect of antagonist on AGTR1-ARRB2 interaction signal", "setting": "[2]", "value": "selectively inhibited"}, {"measurement": "effect of antagonist on AGTR1-ARRB2 interaction signal, dose-response", "setting": "[2]; FIG. 5B", "value": "selectively and completely inhibited"}, {"measurement": "effect of telmisartan compared to losartan on AGTR1-ARRB2 interaction", "setting": "[2]; dose-response, FIG. 5B", "value": "stronger effect"}]}, {"compound": "Cc1csc(NC(=O)CSc2nc3c(c(C(F)(F)F)c2C#N)CCC3)n1", "note": "[Irestatin 9389]", "values": [{"measurement": "ERN1 endonuclease activity", "setting": "[3]", "value": "inhibit ERN1 endonuclease activity"}, {"measurement": "disruption of ERN1 dimerization", "setting": "[4]; 1 μg/ml tunicamycin or vehicle (DMSO) combined with increasing doses of Irestatin 9389, FIG. 6D", "value": "dose-dependent disruption of ERN1 dimerization"}]}, {"compound": "tunicamycin", "values": [{"measurement": "luciferase signal of ERN1 dimerization upon induction of ER-stress", "setting": "[4]; HEK293-T cells, ERN1-Tyk2(C) + ERN1-gp130, 0-0.5-1-2 μg/ml tunicamycin, FIG. 6A", "value": "dose-dependent signal"}]}]}
